Assay results published in patent US20250270191A1, “QUINOLONE BCL6 BIFUNCTIONAL DEGRADERS” (Treeline Biosciences, Inc., priority 2022, published 2025).

Biological target: T1, Human BCL6 protein (N-terminal HiBiT tagged BCL6 in HT1080 cells) (Homo sapiens, UniProt P41182+Q96SW2)
T1 construct: Human BCL6 protein coding open reading frame; expressed in transfected cells; host or cells: HT1080 (ATCC CCL-121), stably transduced with lentivirus pLV-UBC-N-HiBiT-BCL6-PGK-puro
Assay: HiBiT based BCL6 degradation assay
Format: cell-based
Details: HT1080 cells expressing N-terminal HiBiT tagged BCL6; 5 hours incubation; BCL6 degradation normalized with DMSO control
How it was run: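 HT1080 cells stably expressing N-terminal HiBiT-BCL6 were treated with compound dilution series for 5 h at 37° C. in RPMI 1640 with 10% FBS. HiBiT lytic luminescence read after 15 min; degradation normalized to DMSO, with curves fitted by four-parameter logistic model.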

Compound	Ymin (5 hr)
CNC(=O)COc1cc2cc(Nc3nc(N4CCC[C@@H](COc5ccc6c(C7CCC(=O)NC7=O)nn(C)c6c5)C4)ncc3Cl)ccc2n(C)c1=O (stereo partly drawn) [Compound 302b, 2-((6-((5-chloro-2-((3R)-3-(((3-(2,6-dioxopiperidin-3-yl)-1-methyl-1H-indazol-6-yl)oxy)methyl)piperidin-1-yl)pyrimidin-4-yl)amino)-1-methyl-2-oxo-1,2-dihydroquinolin-3-yl)oxy)-N-methylacetamide]	++ (50% < Ymin ≤ 70%)
CNC(=O)COc1cc2cc(Nc3nc(NC[C@@H]4CCCN(c5cccc6c(C7CCC(=O)NC7=O)nn(C)c56)C4)ncc3Cl)ccc2n(C)c1=O (stereo partly drawn) [Compound 303a, 2-((6-((5-chloro-2-((((3S)-1-(3-(2,6-dioxopiperidin-3-yl)-1-methyl-1H-indazol-7-yl)piperidin-3-yl)methyl)amino)pyrimidin-4-yl)amino)-1-methyl-2-oxo-1,2-dihydroquinolin-3-yl)oxy)-N-methylacetamide]	++ (50% < Ymin ≤ 70%)
CNC(=O)COc1cc2cc(Nc3nc(NC[C@H]4CCCN(c5cccc6c(C7CCC(=O)NC7=O)nn(C)c56)C4)ncc3Cl)ccc2n(C)c1=O (stereo partly drawn) [Compound 303b, 2-((6-((5-chloro-2-((((3R)-1-(3-(2,6-dioxopiperidin-3-yl)-1-methyl-1H-indazol-7-yl)piperidin-3-yl)methyl)amino)pyrimidin-4-yl)amino)-1-methyl-2-oxo-1,2-dihydroquinolin-3-yl)oxy)-N-methylacetamide]	++ (50% < Ymin ≤ 70%)
CNC(=O)COc1cc2cc(Nc3nc(NC[C@H]4CC[C@@H](Nc5cccc6c(C7CCC(=O)NC7=O)nn(C)c56)CC4)ncc3Cl)ccc2n(C)c1=O (stereo partly drawn) [Compound 304a, 2-((6-((5-chloro-2-((((1s,4s)-4-((3-(2,6-dioxopiperidin-3-yl)-1-methyl-1H-indazol-7-yl)amino)cyclohexyl)methyl)amino)pyrimidin-4-yl)amino)-1-methyl-2-oxo-1,2-dihydroquinolin-3-yl)oxy)-N-methylacetamide]	++ (50% < Ymin ≤ 70%)
CNC(=O)COc1cc2cc(Nc3nc(NC[C@H]4CC[C@H](Nc5cccc6c(C7CCC(=O)NC7=O)nn(C)c56)CC4)ncc3Cl)ccc2n(C)c1=O (stereo partly drawn) [Compound 304b, 2-((6-((5-chloro-2-((((1r,4r)-4-((3-(2,6-dioxopiperidin-3-yl)-1-methyl-1H-indazol-7-yl)amino)cyclohexyl)methyl)amino)pyrimidin-4-yl)amino)-1-methyl-2-oxo-1,2-dihydroquinolin-3-yl)oxy)-N-methylacetamide]	++ (50% < Ymin ≤ 70%)
CNC(=O)COc1cc2cc(Nc3nc(N4CCN(C[C@H]5CCN(c6cccc7c(C8CCC(=O)NC8=O)nn(C)c67)C5)CC4)ncc3Cl)ccc2n(C)c1=O (stereo partly drawn) [Compound 305a, 2-((6-((5-chloro-2-(4-(((3R)-1-(3-(2,6-dioxopiperidin-3-yl)-1-methyl-1H-indazol-7-yl)pyrrolidin-3-yl)methyl)piperazin-1-yl)pyrimidin-4-yl)amino)-1-methyl-2-oxo-1,2-dihydroquinolin-3-yl)oxy)-N-methylacetamide]	+++ (25% < Ymin ≤ 50%)
CNC(=O)COc1cc2cc(Nc3nc(N4CCN(C[C@@H]5CCN(c6cccc7c(C8CCC(=O)NC8=O)nn(C)c67)C5)CC4)ncc3Cl)ccc2n(C)c1=O (stereo partly drawn) [Compound 305b, 2-((6-((5-chloro-2-(4-(((3S)-1-(3-(2,6-dioxopiperidin-3-yl)-1-methyl-1H-indazol-7-yl)pyrrolidin-3-yl)methyl)piperazin-1-yl)pyrimidin-4-yl)amino)-1-methyl-2-oxo-1,2-dihydroquinolin-3-yl)oxy)-N-methylacetamide]	+++ (25% < Ymin ≤ 50%)
CNC(=O)COc1cc2cc(Nc3nc(N4CCN(C[C@H]5CCN(c6ccc7c(C8CCC(=O)NC8=O)nn(C)c7c6)C5)CC4)ncc3Cl)ccc2n(C)c1=O (stereo partly drawn) [Compound 306a, 2-((6-((5-chloro-2-(4-(((3R)-1-(3-(2,6-dioxopiperidin-3-yl)-1-methyl-1H-indazol-6-yl)pyrrolidin-3-yl)methyl)piperazin-1-yl)pyrimidin-4-yl)amino)-1-methyl-2-oxo-1,2-dihydroquinolin-3-yl)oxy)-N-methylacetamide]	+++ (25% < Ymin ≤ 50%)
CNC(=O)COc1cc2cc(Nc3nc(N4CCN(C[C@@H]5CCN(c6ccc7c(C8CCC(=O)NC8=O)nn(C)c7c6)C5)CC4)ncc3Cl)ccc2n(C)c1=O (stereo partly drawn) [Compound 306b, 2-((6-((5-chloro-2-(4-(((3S)-1-(3-(2,6-dioxopiperidin-3-yl)-1-methyl-1H-indazol-6-yl)pyrrolidin-3-yl)methyl)piperazin-1-yl)pyrimidin-4-yl)amino)-1-methyl-2-oxo-1,2-dihydroquinolin-3-yl)oxy)-N-methylacetamide]	++++ (Ymin ≤ 25%)
CNC(=O)COc1cc2cc(Nc3nc(N4CCN(CC5CCN(c6cccc7c(C8CCC(=O)NC8=O)nn(C)c67)CC5)[C@H](C)C4)ncc3Cl)ccc2n(C)c1=O (stereo partly drawn) [Compound 308a, 2-((6-((5-chloro-2-((3R)-4-((1-(3-(2,6-dioxopiperidin-3-yl)-1-methyl-1H-indazol-7-yl)piperidin-4-yl)methyl)-3-methylpiperazin-1-yl)pyrimidin-4-yl)amino)-1-methyl-2-oxo-1,2-dihydroquinolin-3-yl)oxy)-N-methylacetamide]	++++ (Ymin ≤ 25%)
CNC(=O)COc1cc2cc(Nc3nc(N4CCN(CC5CCN(c6cccc7c(C8CCC(=O)NC8=O)nn(C)c67)CC5)[C@@H](C)C4)ncc3Cl)ccc2n(C)c1=O (stereo partly drawn) [Compound 308b, 2-((6-((5-chloro-2-((3S)-4-((1-(3-(2,6-dioxopiperidin-3-yl)-1-methyl-1H-indazol-7-yl)piperidin-4-yl)methyl)-3-methylpiperazin-1-yl)pyrimidin-4-yl)amino)-1-methyl-2-oxo-1,2-dihydroquinolin-3-yl)oxy)-N-methylacetamide]	++++ (Ymin ≤ 25%)
CNC(=O)COc1cc2cc(Nc3nc(N4CCN(CC5CCN(c6ccc7c(C8CCC(=O)NC8=O)nn(C)c7c6)CC5)[C@H](C)C4)ncc3Cl)ccc2n(C)c1=O (stereo partly drawn) [Compound 309a, 2-((6-((5-chloro-2-((3R)-4-((1-(3-(2,6-dioxopiperidin-3-yl)-1-methyl-1H-indazol-6-yl)piperidin-4-yl)methyl)-3-methylpiperazin-1-yl)pyrimidin-4-yl)amino)-1-methyl-2-oxo-1,2-dihydroquinolin-3-yl)oxy)-N-methylacetamide]	+++ (25% < Ymin ≤ 50%)
CNC(=O)COc1cc2cc(Nc3nc(N4CCN(CC5CCN(c6ccc7c(C8CCC(=O)NC8=O)nn(C)c7c6)CC5)[C@@H](C)C4)ncc3Cl)ccc2n(C)c1=O (stereo partly drawn) [Compound 309b, 2-((6-((5-chloro-2-((3S)-4-((1-(3-(2,6-dioxopiperidin-3-yl)-1-methyl-1H-indazol-6-yl)piperidin-4-yl)methyl)-3-methylpiperazin-1-yl)pyrimidin-4-yl)amino)-1-methyl-2-oxo-1,2-dihydroquinolin-3-yl)oxy)-N-methylacetamide]	+++ (25% < Ymin ≤ 50%)
CNC(=O)COc1cc2cc(Nc3nc(N4CCC(CC5CN(c6cccc7c(C8CCC(=O)NC8=O)nn(C)c67)C5)CC4)ncc3Cl)ccc2n(C)c1=O (stereo not drawn) [Compound 310, 2-((6-((5-chloro-2-(4-((1-(3-(2,6-dioxopiperidin-3-yl)-1-methyl-1H-indazol-7-yl)azetidin-3-yl)methyl)piperidin-1-yl)pyrimidin-4-yl)amino)-1-methyl-2-oxo-1,2-dihydroquinolin-3-yl)oxy)-N-methylacetamide]	+++ (25% < Ymin ≤ 50%)
CNC(=O)COc1cc2cc(Nc3nc(N4CCN(CC5CCC6(CC5)CN(c5cccc7c(C8CCC(=O)NC8=O)nn(C)c57)C6)CC4)ncc3Cl)ccc2n(C(C)C)c1=O (stereo not drawn) [Compound 311, 2-((6-((5-chloro-2-(4-((2-(3-(2,6-dioxopiperidin-3-yl)-1-methyl-1H-indazol-7-yl)-2-azaspiro[3.5]nonan-7-yl)methyl)piperazin-1-yl)pyrimidin-4-yl)amino)-1-isopropyl-2-oxo-1,2-dihydroquinolin-3-yl)oxy)-N-methylacetamide]	++ (50% < Ymin ≤ 70%)
CNC(=O)COc1cc2cc(Nc3nc(N4CCC[C@H](CN(C)c5ccc6c(C7CCC(=O)NC7=O)nn(C)c6c5)C4)ncc3Cl)ccc2n(C)c1=O (stereo partly drawn) [Compound 312a, 2-((6-((5-chloro-2-((3R)-3-(((3-(2,6-dioxopiperidin-3-yl)-1-methyl-1H-indazol-6-yl)(methyl)amino)methyl)piperidin-1-yl)pyrimidin-4-yl)amino)-1-methyl-2-oxo-1,2-dihydroquinolin-3-yl)oxy)-N-methylacetamide]	++ (50% < Ymin ≤ 70%)
CNC(=O)COc1cc2cc(Nc3nc(N4CC[C@H](COc5ccc6c(C7CCC(=O)NC7=O)nn(C)c6c5)C4)ncc3Cl)ccc2n(C)c1=O (stereo partly drawn) [Compound 313a, 2-((6-((5-chloro-2-((3S)-3-(((3-(2,6-dioxopiperidin-3-yl)-1-methyl-1H-indazol-6-yl)oxy)methyl)pyrrolidin-1-yl)pyrimidin-4-yl)amino)-1-methyl-2-oxo-1,2-dihydroquinolin-3-yl)oxy)-N-methylacetamide]	++ (50% < Ymin ≤ 70%)
CNC(=O)COc1cc2cc(Nc3nc(N4CCC(CN5CCN(C(=O)c6cccc(C7CCC(=O)NC7=O)c6)CC5)CC4)ncc3Cl)ccc2n(C)c1=O (stereo not drawn) [Compound 314, 2-((6-((5-chloro-2-(4-((4-(3-(2,6-dioxopiperidin-3-yl)benzoyl)piperazin-1-yl)methyl)piperidin-1-yl)pyrimidin-4-yl)amino)-1-methyl-2-oxo-1,2-dihydroquinolin-3-yl)oxy)-N-methylacetamide]	++ (50% < Ymin ≤ 70%)
